Laboratory results as given in patent publication US20240246964A1 (Arbutus Biopharma Corporation, priority 2021, published 2024).

Molecular target: human PD-L1 (Homo sapiens (Human), UniProt Q9NZQ7)
Test: T cell activation luciferase reporter cell culture system (T Cell Activation Assay)
Format: cell-based
Conditions: luciferase reporter assay; PD-L1 aAPC/CHO-K1 cells with PD-1 effector Jurkat T cells

Sequence of human PD-L1 (Q9NZQ7 19-290): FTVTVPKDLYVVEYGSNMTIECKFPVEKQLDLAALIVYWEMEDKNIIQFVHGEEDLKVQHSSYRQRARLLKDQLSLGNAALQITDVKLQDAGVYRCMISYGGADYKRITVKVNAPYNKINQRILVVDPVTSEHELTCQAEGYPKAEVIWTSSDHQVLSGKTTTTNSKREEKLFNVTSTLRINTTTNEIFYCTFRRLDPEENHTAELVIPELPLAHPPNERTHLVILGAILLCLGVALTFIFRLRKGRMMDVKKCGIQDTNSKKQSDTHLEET

Row | SMILES | EC50
1 | COc1cc(-c2nccc(-c3cccc(-c4ccc(CNC5CCN(C(C)=O)CC5)c(OC)n4)c3Cl)c2Cl)ccc1CNC1CCN(C(=O)C(C)C)CC1 [Example 371, 1-(4-((4-(4-(3-(5-(((1-acetylpiperidin-4-yl)amino)methyl)-6-methoxypyridin-2-yl)-2-chlorophenyl)-3-chloropyridin-2-yl)-2-methoxybenzyl)amino)piperidin-1-yl)-2-methylpropan-1-one] | 48.7 nM
2 | COc1cc(-c2nccc(-c3cccc(-c4ccc(CNC5CCN(S(C)(=O)=O)CC5)c(OC)n4)c3Cl)c2Cl)ccc1CNC1CCN(S(C)(=O)=O)CC1 [Example 372, N-((6-(2-Chloro-3-(3-chloro-2-(3-methoxy-4-(((1-(methylsulfonyl)piperidin-4-yl)amino)methyl)phenyl)pyridin-4-yl)phenyl)-2-methoxypyridin-3-yl)methyl)-1-(methylsulfonyl)piperidin-4-amine] | 23.5 nM
3 | COc1cc(-c2nccc(-c3cccc(-c4ccc(CNCCCCC(N)=O)c(OC)n4)c3Cl)c2Cl)ccc1CNCCCCC(N)=O [Example 373, 5-(((6-(3-(2-(4-(((5-Amino-5-oxopentyl)amino)methyl)-3-methoxyphenyl)-3-chloropyridin-4-yl)-2-chlorophenyl)-2-methoxypyridin-3-yl)methyl)amino)pentanamide] | 152 nM
4 | COc1cc(-c2nccc(-c3cccc(-c4ccc(CN[C@@H]5CCN(C(C)=O)C5)c(OC)n4)c3Cl)c2Cl)ccc1CN[C@@H]1CCN(C(C)=O)C1 [Example 374, 1-((R)-3-(((6-(3-(2-(4-((((R)-1-Acetylpyrrolidin-3-yl)amino)methyl)-3-methoxyphenyl)-3-chloropyridin-4-yl)-2-chlorophenyl)-2-methoxypyridin-3-yl)methyl)amino)pyrrolidin-1-yl)ethan-1-one] | 44.6 nM
5 | COc1nc(-c2cccc(-c3ccnc(-c4cnc5c(CN6CCC(NC(C)=O)CC6)cn(C)c5c4)c3Cl)c2Cl)ccc1CNC[C@@H]1CCC(=O)N1 [Example 377, (S)—N-(1-((6-(3-chloro-4-(2-chloro-3-(6-methoxy-5-((((5-oxopyrrolidin-2-yl)methyl)amino)methyl)pyridin-2-yl)phenyl)pyridin-2-yl)-1-methyl-1H-pyrrolo[3,2-b]pyridin-3-yl)methyl)piperidin-4-yl)acetamide] | 405 nM
6 | COc1nc(-c2cccc(-c3ccnc(-c4cnc5c(CN6CC7(CNC(=O)C7)C6)cn(C)c5c4)c3Cl)c2Cl)ccc1CNC[C@@H]1CCC(=O)N1 [Example 378, (S)-2-((6-(3-Chloro-4-(2-chloro-3-(6-methoxy-5-((((5-oxopyrrolidin-2-yl)methyl)amino)methyl)pyridin-2-yl)phenyl)pyridin-2-yl)-1-methyl-1H-pyrrolo[3,2-b]pyridin-3-yl)methyl)-2,6-diazaspiro[3.4]octan-7-one] | 73.8 nM
7 | COc1cc(-c2nccc(-c3cccc(-c4ccc(CNC5CCN(C(C)=O)CC5)c(OC)n4)c3Cl)c2Cl)ccc1CNC1CC2(COC2)C1 [Example 379, 1-(4-(((6-(3-(2-(4-(((2-Oxaspiro[3.3]heptan-6-yl)amino)methyl)-3-methoxyphenyl)-3-chloropyridin-4-yl)-2-chlorophenyl)-2-methoxypyridin-3-yl)methyl)amino)piperidin-1-yl)ethan-1-one] | 45.3 nM
8 | COc1cc(-c2nccc(-c3cccc(-c4ccc(CNC5CCN(C(=O)C(C)C)CC5)c(OC)n4)c3Cl)c2Cl)ccc1CNC1CCN(C(C)=O)CC1 [Example 382, 1-(4-(((6-(3-(2-(4-(((1-acetylpiperidin-4-yl)amino)methyl)-3-methoxyphenyl)-3-chloropyridin-4-yl)-2-chlorophenyl)-2-methoxypyridin-3-yl)methyl)amino)piperidin-1-yl)-2-methylpropan-1-one] | 15.3 nM
